From patent US7323460B2, “N-(substituted benzyl)-8-hydroxy-1,6-naphthyridine-7-carboxamides useful as HIV integrase inhibitors” (Merck & Co., Inc., priority 2002, dated 2008)
pIC50: −log10 of the molar value.

Key:
[1] = system: HIV mutants that are resistant to other integrase inhibitors; assay: Antiviral activity against HIV mutants resistant to other integrase inhibitors; format: cell-based
HIV = assay: Antiviral potency in the presence of human serum proteins; format: cell-based; conditions: relative to closely related N-benzyl-8-hydroxy-1,6-naphthyridine carboxamide integrase inhibitors without ortho polar substituent
[2] = molecular target: T1, HIV integrase (recombinant integrase) (Human immunodeficiency virus type 1 group M subtype B, UniProt P04585); assay: HIV integrase assay: strand transfer catalyzed by recombinant integrase; format: biochemical
T1 construct: HIV Integrase Assay: Strand Transfer Catalyzed by Recombinant Integrase
Method: HIV Integrase Assay: Strand Transfer Catalyzed by Recombinant Integrase
Assays for the strand transfer activity of integrase were conducted in accordance with the method described in Example 193 of WO 02/30930 for recombinant integrase.
Further description on conducting the assay using preassembled complexes is found in Wolfe, A. L. et al., J. Virol. 1996, 70: 1424-1432, Hazuda et al., J. Virol. 1997, 71: 7005-7011; Hazuda et al., Drug Design and Discovery 1997, 15: 17-24; and Hazuda et al., Science 2000, 287: 646-650.

CNC(=O)c1cc(F)ccc1CNC(=O)c1nc(N2CCCCS2(=O)=O)c2cccnc2c1O [Compound A, N-{4-fluoro-2-[(methylamino)carbonyl]benzyl}-5-(1,1-dioxido-1,2-thiazinan-2-yl)-8-hydroxy-1,6-naphthyridine-7-carboxamide]
antiviral activity against several HIV mutants resistant to other integrase inhibitors [1]: retention of significant antiviral activity | antiviral potency in the presence of human serum proteins (HIV): improved

CNC(=O)c1cc(F)ccc1CNC(=O)c1nc(N2CCCCS2(=O)=O)c2cccnc2c1O [Example 3, Sodium 5-(1,1-dioxido-1,2-thiazinan-2-yl)-7-[({4-fluoro-2-[(methylamino)carbonyl]-benzyl}amino)carbonyl]-1,6-naphthyridin-8-olate]
pIC50 [2]: > 6.30
